Test results published in ChEMBL document CHEMBL1126420, “Design and synthesis of novel ligands for the 5-HT3 and the 5-HT4 receptor” (Bioorg Med Chem Lett, 1992).

How the values were obtained:
[1] = target: Serotonin 3 (5-HT3) receptor; assay: Antagonistic activity against Serotonin 5-hydroxytryptamine 3 receptor of isolated guinea pig ileum (GPI); assay type: functional, tissue-based, Cavia porcellus
[2] = target: 5-hydroxytryptamine receptor 4 (Cavia porcellus) (UniProt O70528); assay: Agonistic activity against Serotonin 5-hydroxytryptamine 4 receptor in low frequency field stimulation of guinea-pig ileum (FSGPI).; assay type: functional, tissue-based
Sequence of 5-hydroxytryptamine receptor 4 (Cavia porcellus) (O70528 whole entry, the tested form may be a part): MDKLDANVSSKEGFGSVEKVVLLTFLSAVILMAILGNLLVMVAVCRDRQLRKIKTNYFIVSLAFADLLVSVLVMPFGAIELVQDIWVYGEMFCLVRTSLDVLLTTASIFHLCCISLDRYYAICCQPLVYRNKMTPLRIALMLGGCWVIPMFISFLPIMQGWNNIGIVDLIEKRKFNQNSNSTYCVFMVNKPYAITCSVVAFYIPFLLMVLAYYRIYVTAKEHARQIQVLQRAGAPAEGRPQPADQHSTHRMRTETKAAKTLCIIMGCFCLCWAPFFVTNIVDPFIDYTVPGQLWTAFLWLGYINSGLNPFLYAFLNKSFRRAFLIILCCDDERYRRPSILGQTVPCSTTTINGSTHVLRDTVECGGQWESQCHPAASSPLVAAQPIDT

[3] = target: 5-hydroxytryptamine receptor 4 (Cavia porcellus) (UniProt O70528); assay: Agonistic activity against Serotonin 5-hydroxytryptamine 4 receptor in non-electrically stimulated guinea-pig ileum.; assay type: functional, tissue-based
[4] = target: T1, Serotonin 3 (5-HT3) receptor (Homo sapiens) (UniProt P46098+A5X5Y0+O95264+Q70Z44+Q8WXA8); assay: Evaluated for the antagonistic activity against Serotonin 5-hydroxytryptamine 3 receptor in isolated guinea pig ileum (GPI); assay type: functional, tissue-based; conditions: Cavia porcellus, target entry is the homologue from another species
[5] = target: T1, Serotonin 3 (5-HT3) receptor (Homo sapiens); assay: Evaluated for the antagonistic activity against Serotonin 5-hydroxytryptamine 3 receptor in isolated rabbit vagus nerve (RVN); assay type: functional, tissue-based; conditions: Oryctolagus cuniculus, target entry is the homologue from another species
[6] = target: 5-hydroxytryptamine receptor 4 (Cavia porcellus) (UniProt O70528); assay: Evaluated for the agonistic activity against Serotonin 5-HT4 receptor in non-electrically stimulated guinea-pig ileum.; assay type: functional, tissue-based
[7] = target: Serotonin 3 (5-HT3) receptor; assay: (§1) Evaluated for the antagonistic activity against Serotonin 5-hydroxytryptamine 3 receptor in isolated perfused rabbit heart (RH); assay type: functional, Oryctolagus cuniculus
[8] = target: Serotonin 3 (5-HT3) receptor; assay: Antagonistic activity against Serotonin 5-hydroxytryptamine 3 receptor in isolated rabbit vagus nerve (RVN); assay type: functional, tissue-based, Oryctolagus cuniculus
[9] = target: 5-hydroxytryptamine receptor 4 (Cavia porcellus) (UniProt O70528); assay: Agonistic activity against Serotonin 5-HT4 receptor in low frequency field stimulation of guinea-pig ileum (FSGPI); assay type: functional, tissue-based
[10] = target: 5-hydroxytryptamine receptor 4 (Cavia porcellus) (UniProt O70528); conditions: Ileum
Description: Evaluated for the agonistic activity against 5-HT4 receptor in non-electrically stimulated guinea-pig ileum.

[11] = target: T1, Serotonin 3 (5-HT3) receptor (Homo sapiens); assay: as §1; assay type: functional; conditions: Oryctolagus cuniculus; target entry is the homologue from another species
[12] = target: T2, Serotonin 3 receptor (5HT3) (Mus musculus) (UniProt Q9JHJ5+P23979); assay: Compound was evaluated for binding to Serotonin 5-hydroxytryptamine 3 receptor in N1E cells using [3H]- -Tropisetron as radioligand; assay type: cell-based
T2 sequence (P23979 whole entry, looked up, the tested form may be a part): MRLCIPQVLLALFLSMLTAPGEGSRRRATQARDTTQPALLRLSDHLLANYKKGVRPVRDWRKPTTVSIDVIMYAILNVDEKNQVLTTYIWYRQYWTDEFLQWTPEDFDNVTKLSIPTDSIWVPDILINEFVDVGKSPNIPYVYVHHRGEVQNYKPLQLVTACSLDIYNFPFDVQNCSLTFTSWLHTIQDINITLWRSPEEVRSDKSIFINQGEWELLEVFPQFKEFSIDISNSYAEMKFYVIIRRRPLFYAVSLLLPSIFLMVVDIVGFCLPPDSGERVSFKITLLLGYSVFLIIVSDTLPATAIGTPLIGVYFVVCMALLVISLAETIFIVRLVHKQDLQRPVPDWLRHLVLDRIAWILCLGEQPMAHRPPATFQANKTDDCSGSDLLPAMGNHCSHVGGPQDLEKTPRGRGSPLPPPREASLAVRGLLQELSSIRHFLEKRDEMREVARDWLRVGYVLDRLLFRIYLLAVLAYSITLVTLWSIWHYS
T2 sequence (Q9JHJ5 whole entry, looked up, the tested form may be a part): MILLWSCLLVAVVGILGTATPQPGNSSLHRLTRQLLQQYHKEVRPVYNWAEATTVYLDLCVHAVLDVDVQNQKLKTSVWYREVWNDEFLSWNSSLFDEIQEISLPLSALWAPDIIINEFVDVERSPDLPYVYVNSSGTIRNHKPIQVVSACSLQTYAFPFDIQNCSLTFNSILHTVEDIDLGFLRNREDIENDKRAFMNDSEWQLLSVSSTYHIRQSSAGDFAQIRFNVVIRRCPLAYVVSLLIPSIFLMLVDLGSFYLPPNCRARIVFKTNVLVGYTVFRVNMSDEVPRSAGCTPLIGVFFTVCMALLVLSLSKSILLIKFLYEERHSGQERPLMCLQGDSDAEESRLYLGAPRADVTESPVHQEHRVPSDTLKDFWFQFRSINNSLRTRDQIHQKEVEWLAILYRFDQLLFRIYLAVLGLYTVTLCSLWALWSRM

[13] = target: Serotonin 3 (5-HT3) receptor; assay: Evaluated for the antagonistic activity against 5-hydroxytryptamine 3 receptor in isolated perfused rabbit heart (RH); assay type: functional, Oryctolagus cuniculus
[14] = target: Serotonin 3 (5-HT3) receptor; assay: Evaluated for the antagonistic activity against 5-hydroxytryptamine 3 receptor in isolated rabbit vagus nerve (RVN); assay type: functional, tissue-based, Oryctolagus cuniculus
[15] = pKa value was determined; assay type: physicochemical
[16] = target: 5-hydroxytryptamine receptor 4 (Cavia porcellus, UniProt O70528); assay: Evaluated for the antagonistic activity against Serotonin 5-hydroxytryptamine 4 receptor in non-electrically stimulated guinea-pig ileum.; assay type: functional, tissue-based; conditions: read-out: pA2 (converted)
Sequence of 5-hydroxytryptamine receptor 4 (O70528 whole entry): as the sequence (O70528 whole entry, the tested form may be a part) above

[17] = target: T2, Serotonin 3 receptor (5HT3) (Mus musculus); assay: Compound was evaluated for binding to 5-hydroxytryptamine 3 receptor in N1E cells using [3H]- -Tropisetron as radioligand; assay type: cell-based
[18] = organism: Rattus norvegicus; assay: Effective dose inhibited the Bezold-Jarisch reflex in rats was determined; assay type: functional
[19] = target: 5-hydroxytryptamine receptor 4 (Cavia porcellus) (UniProt O70528); conditions: Ileum; remark: listed apart in the source
Description: pD2 value in the non-electrically stimulated guinea pig ileum

Q: With `Nc1c(Cl)cc(C(=O)NC2CCN3CCCC2C3)c2ncccc12` (configuration not stated) as the compound, how does the pA2 [1] read?
A: The pA2 was 6.7.

Q: What about the pD2 [2] of the same compound?
A: The pD2 was 7.5.

Q: What about the pD2 [3] of the same compound?
A: The pD2 was 7.1.

Q: For `NCCc1ccnc2ccc(O)cc12`, which pD2 [4] is on record?
A: The pD2 was 4.5.

Q: What about the pD2 [5] of the same compound?
A: Its pD2 is 5.8.

Q: Which pD2 [6] does the source give for `CCN(CC)CCOC(=O)c1cc(Cl)c(N)cc1OC` here?
A: Its pD2 is 7.

Q: Which results are given for `CCN(CC)CCNC(=O)c1cc(Cl)c(N)cc1OC` [METOCLOPRAMIDE]?
A: pA2 [1]: 5.2; pA2 [7]: 7.1; pD2 [2]: 5.5

Q: What does the source list for `Nc1c(Cl)cc(C(=O)NC2CN3CCC2CC3)c2nsnc12` (configuration not stated)?
A: pA2 [1]: 7.7; pA2 [8]: 8.9; pD2 [2]: 5.8; pD2 [3]: 5.5

Q: With `NCCc1c[nH]c2ccc(O)cc12` as the compound, how does the pD2 [9] read?
A: Its pD2 is 7.

Q: What about the pD2 [10] of the same compound?
A: Its pD2 is 7.9.

Q: With `Nc1c(Cl)cc(C(=O)NC2CN3CCC2CC3)c2ncccc12` (configuration not stated) as the compound, how does the pA2 [1] read?
A: The pA2 was 7.9.

Q: And the pA2 [8]?
A: Its pA2 is 9.

Q: What about the pD2 [2] of the same compound?
A: The pD2 was 7.2.

Q: What about the pD2 [3] of the same compound?
A: The pD2 was 6.

Q: Which results are given for `COc1cc(N)c(Cl)cc1C(=O)N[C@H]1CCN2CCC[C@@H]1C2`?
A: pA2 [7]: 8.6; pD2 [2]: 7.1; pD2 [3]: 5.7

Q: For `COc1cc(N)c(Cl)cc1C(=O)NC1CN2CCC1CC2` (configuration not stated), which pD2 [2] is on record?
A: The pD2 was 6.2.

Q: What about the pD2 [3] of the same compound?
A: The pD2 was 5.9.

Q: Which results are given for `NCCC1CCCc2ccc(O)cc21` (configuration not stated)?
A: pD2 [4]: 5.2; pD2 [11]: 5.7; pD2 [5]: 6

Q: With `CCN(CC)Cc1coc(-c2cc(Cl)c(N)cc2OC)n1` as the compound, how does the pD2 [9] read?
A: Its pD2 is 6.1.

Q: What about the pD2 [6] of the same compound?
A: Its pD2 is 6.

Q: Which results are given for `Cc1[nH]c2ccc(O)cc2c1CCN`?
A: pD2 [4]: 5.1; pD2 [11]: 5.5; pD2 [5]: 5.6

Q: Which pA2 [1] does the source give for `O=C(CC1CC2CCC(C1)N2)c1c[nH]c2cc(O)ccc12` (configuration not stated) here?
A: Its pA2 is 6.

Q: And the pD2 [11]?
A: The pD2 was 6.

Q: What about the pD2 [5] of the same compound?
A: The pD2 was 7.

Q: Which pD2 [9] does the source give for `Cc1[nH]c2ccc(O)cc2c1CC(=N)NCCCN1CCCC1=O` here?
A: The pD2 was 5.8.

Q: What does the source list for `CN1C2CC(OC(=O)c3c[nH]c4ccccc34)CC1C1OC12` (configuration not stated)?
A: pA2 [1]: 8.8; pKD [12]: 9.2; pA2 [13]: 11; pA2 [14]: 10.6; pD2 [2]: 0; pKa [15]: 6.64; Kb [16]: 501 nM

Q: For `N#Cc1[nH]c2ccc(O)cc2c1CCN`, which pD2 [4] is on record?
A: The pD2 was 5.4.

Q: What about the pD2 [11] of the same compound?
A: The pD2 was 4.

Q: And the pD2 [5]?
A: Its pD2 is 7.2.

Q: With `Nc1c(Cl)cc(C(=O)NC2CCN3CCCC2C3)c2nsnc12` (configuration not stated) as the compound, how does the pA2 [1] read?
A: Its pA2 is 6.8.

Q: And the pA2 [8]?
A: The pA2 was 7.7.

Q: And the pD2 [2]?
A: Its pD2 is 7.2.

Q: And the pD2 [3]?
A: The pD2 was 6.

Q: With `N/C(Cc1c[nH]c2ccc(O)cc12)=N\CCc1c[nH]c2ccc(O)cc12` as the compound, how does the pD2 [9] read?
A: Its pD2 is 6.3.

Q: For `COc1ccc2[nH]ccc2c1C(=O)NC1CN2CCC1CC2` (configuration not stated), which pA2 [1] is on record?
A: The pA2 was 7.2.

Q: What about the pD2 [2] of the same compound?
A: Its pD2 is 6.6.

Q: And the pD2 [3]?
A: Its pD2 is 7.1.

Q: What does the source list for `CCN(CC)CCN1CCc2cc(N)c(Cl)cc2C1=O`?
A: pD2 [9]: 5.2; pD2 [6]: 5.1

Q: Which results are given for `Cc1nccn1CC1CCc2c(c3ccccc3n2C)C1=O` (configuration not stated)?
A: pKD [17]: 7.7; pD2 [2]: 5.1

Q: Which results are given for `CN1[C@@H]2CC[C@H]1C[C@@H](OC(=O)c1c[nH]c3ccccc13)C2` [TROPISETRON]?
A: pKD [12]: 9.1; pKa [15]: 8.4; ED50 [18]: 0.72 µg/kg; Kb [16]: 2000 nM; pD2 [19]: 5.7

Q: With `COc1cc(N)c(Cl)cc1C(=O)N[C@H]1CCN(CCCOc2ccc(F)cc2)C[C@H]1OC` [CISAPRIDE] as the compound, how does the pA2 [1] read?
A: The pA2 was 7.2.

Q: And the pA2 [7]?
A: Its pA2 is 7.1.

Q: What about the pA2 [8] of the same compound?
A: The pA2 was 6.5.

Q: And the pD2 [2]?
A: Its pD2 is 6.
